Values of other authors as cited in publication PMC11876601 (Molecular Systems Biology, 2025).
Like-named read-outs stand apart in the source and are kept apart here.

Legend:
[1] = test system: SLK; set-up: method as in Klaeger et al. (2017); settings: lysate 4 cell line mix (Colo205, K-562, MV-4-11, and SK-N-BE(2)), Kinobeads y, ref Klaeger et al. (2017); cited from earlier work
[2] = test system: MAPK8; set-up: method as in Klaeger et al. (2017); settings: lysate 4 cell line mix (Colo205, K-562, MV-4-11, and SK-N-BE(2)), Kinobeads y, ref Klaeger et al. (2017); cited from earlier work
[3] = test system: CDK5; set-up: method as in Klaeger et al. (2017); settings: lysate 4 cell line mix (Colo205, K-562, MV-4-11, and SK-N-BE(2)), Kinobeads y, ref Klaeger et al. (2017); cited from earlier work
[4] = test system: MAP3K6; set-up: method as in Klaeger et al. (2017); settings: lysate 4 cell line mix (Colo205, K-562, MV-4-11, and SK-N-BE(2)), Kinobeads y, ref Klaeger et al. (2017); cited from earlier work
[5] = test system: MAP4K3; set-up: method as in Klaeger et al. (2017); settings: lysate 4 cell line mix (Colo205, K-562, MV-4-11, and SK-N-BE(2)), Kinobeads y, ref Klaeger et al. (2017); cited from earlier work
[6] = test system: RPS6KA3; set-up: method as in Klaeger et al. (2017); settings: lysate 4 cell line mix (Colo205, K-562, MV-4-11, and SK-N-BE(2)), Kinobeads y, ref Klaeger et al. (2017); cited from earlier work
[7] = target: EIF3J; settings: 5 cell line mix lysate, Kinobeads ε, ref Reinecke et al. (2023), cited from earlier work
[8] = test system: PRKAA1; set-up: method as in Reinecke et al. (2023); settings: PRKAA1, 5 cell line mix lysate, Kinobeads ε, ref Reinecke et al. (2023), cited from earlier work
[9] = test system: JAK2; set-up: method as in Reinecke et al. (2023); settings: JAK2, 5 cell line mix lysate, Kinobeads ε, ref Reinecke et al. (2023), cited from earlier work
[10] = test system: PLK1; set-up: method as in Reinecke et al. (2023); settings: PLK1, 5 cell line mix lysate, Kinobeads ε, ref Reinecke et al. (2023), cited from earlier work
[11] = test system: JAK1; set-up: method as in Reinecke et al. (2023); settings: JAK1, 5 cell line mix lysate, Kinobeads ε, ref Reinecke et al. (2023), cited from earlier work
[12] = target: PRKCD; set-up: method as in Reinecke et al. (2023); settings: 5 cell line mix lysate, Kinobeads ε, ref Reinecke et al. (2023), cited from earlier work
[13] = test system: PHKG2; settings: PHKG2, 5 cell line mix lysate, Kinobeads ε, ref Reinecke et al. (2023), cited from earlier work
[14] = target: IKBKE; settings: 5 cell line mix lysate, Kinobeads ε, ref Reinecke et al. (2023), cited from earlier work
[15] = target: GAK; settings: 5 cell line mix lysate, Kinobeads ε, ref Reinecke et al. (2023), cited from earlier work
[16] = test system: RPS6KA3; set-up: method as in Reinecke et al. (2023); settings: RPS6KA3, 5 cell line mix lysate, Kinobeads ε, ref Reinecke et al. (2023), cited from earlier work
[17] = test system: MAP3K6; set-up: method as in Reinecke et al. (2023); settings: MAP3K6, 5 cell line mix lysate, Kinobeads ε, ref Reinecke et al. (2023), cited from earlier work
[18] = target: TTK; set-up: method as in Reinecke et al. (2023); settings: 5 cell line mix lysate, Kinobeads ε, ref Reinecke et al. (2023), cited from earlier work
[19] = target: TANK; settings: 5 cell line mix lysate, Kinobeads ε, ref Reinecke et al. (2023), cited from earlier work
[20] = test system: IRAK3; settings: IRAK3, 5 cell line mix lysate, Kinobeads ε, ref Reinecke et al. (2023), cited from earlier work
[21] = test system: FGFR3;FGFR4; set-up: method as in Reinecke et al. (2023); settings: FGFR3;FGFR4, 5 cell line mix lysate, Kinobeads ε, ref Reinecke et al. (2023), cited from earlier work
[22] = target: FES; set-up: method as in Reinecke et al. (2023); settings: 5 cell line mix lysate, Kinobeads ε, ref Reinecke et al. (2023), cited from earlier work
[23] = target: INCENP; set-up: method as in Reinecke et al. (2023); settings: 5 cell line mix lysate, Kinobeads ε, ref Reinecke et al. (2023), cited from earlier work
[24] = test system: PHKA2; set-up: method as in Reinecke et al. (2023); settings: PHKA2, 5 cell line mix lysate, Kinobeads ε, ref Reinecke et al. (2023), cited from earlier work

## C[C@]12O[C@H](C[C@]1(O)CO)n1c3ccccc3c3c4c(c5c6ccccc6n2c5c31)CNC4=O [Lestaurtinib]
[1]
  EC50: […]
[2]
  EC50: 1210 nM
[3]
  EC50: […]
[4]
  EC50: 458 nM
[5]
  EC50: […]
[6]
  EC50: 2790 nM

## COc1cc(N2CCC(N3CCN(C)CC3)CC2)ccc1Nc1ncc(Cl)c(Nc2ccccc2P(C)(C)=O)n1 [Brigatinib]
[7]; read-out: KDapp
  Kd: 434 nM
[7]
  EC50: 434 nM
  pKDapp: 6.36
[8]
  EC50: 1110 nM
  pKDapp: 6.15
[8]; read-out: KDapp
  Kd: 709 nM
[9]
  EC50: 4340 nM
  pKDapp: 5.46
[9]; read-out: KDapp
  Kd: 3470 nM
[10]
  EC50: 1100 nM
  pKDapp: 5.99
[10]; read-out: KDapp
  Kd: 1010 nM
[11]
  EC50: 373 nM
  pKDapp: 6.86
[11]; read-out: KDapp
  Kd: 139 nM
[12]; read-out: KDapp
  Kd: 24500 nM
[12]
  EC50: 25800 nM
  pKDapp: 4.61
[13]
  EC50: 199 nM
  pKDapp: 6.71
[13]; read-out: KDapp
  Kd: 193 nM
[14]; read-out: KDapp
  Kd: 2520 nM
[14]
  EC50: 4060 nM
  pKDapp: 5.60
[15]; read-out: KDapp
  Kd: 5.8 nM
[15]
  EC50: 10.3 nM
  pKDapp: 8.24
[16]
  EC50: 162 nM
  pKDapp: 6.93
[16]; read-out: KDapp
  Kd: 118 nM
[17]
  EC50: 844 nM
  pKDapp: 6.16
[17]; read-out: KDapp
  Kd: 697 nM
[18]; read-out: KDapp
  Kd: 629 nM
[18]
  EC50: 629 nM
  pKDapp: 6.20
[19]; read-out: KDapp
  Kd: 684 nM
[19]
  EC50: 1070 nM
  pKDapp: 6.17
[20]
  EC50: 1150 nM
  pKDapp: 6.31
[20]; read-out: KDapp
  Kd: 494 nM
[21]
  EC50: 617 nM
  pKDapp: 6.21
[21]; read-out: KDapp
  Kd: 617 nM
[22]; read-out: KDapp
  Kd: 63 nM
[22]
  EC50: 170 nM
  pKDapp: 7.20
[23]; read-out: KDapp
  Kd: 1030 nM
[23]
  EC50: 1160 nM
  pKDapp: 5.99
[24]
  EC50: 19.7 nM
  pKDapp: 7.71
[24]; read-out: KDapp
  Kd: 19.7 nM
